Several values for one entry are separate records, joined by “and”; a condition that tells them apart may be missing. Equal entries are not always repeated. Where two headings read alike, the source gives them in different places. Blank lines part the entries; values can stand above or below the compound they belong to.
Tests used:
[1] = biological target: T1, OATP2B1 (SLCO2B1) (Homo sapiens, UniProt O94956); settings: for Michaelis constant (K m) of the saturable component of OATP2B1‐specific uptake: 7.5 min, erlotinib 0.05–2.05 μM, ± standard error; for effect on [^11C]erlotinib uptake in OATP2B1 overexpressing cells: erlotinib 1 μM, cyclosporine A 10 μM, rifampicin 100 μM, 5 min
T1 sequence (O94956 1-709): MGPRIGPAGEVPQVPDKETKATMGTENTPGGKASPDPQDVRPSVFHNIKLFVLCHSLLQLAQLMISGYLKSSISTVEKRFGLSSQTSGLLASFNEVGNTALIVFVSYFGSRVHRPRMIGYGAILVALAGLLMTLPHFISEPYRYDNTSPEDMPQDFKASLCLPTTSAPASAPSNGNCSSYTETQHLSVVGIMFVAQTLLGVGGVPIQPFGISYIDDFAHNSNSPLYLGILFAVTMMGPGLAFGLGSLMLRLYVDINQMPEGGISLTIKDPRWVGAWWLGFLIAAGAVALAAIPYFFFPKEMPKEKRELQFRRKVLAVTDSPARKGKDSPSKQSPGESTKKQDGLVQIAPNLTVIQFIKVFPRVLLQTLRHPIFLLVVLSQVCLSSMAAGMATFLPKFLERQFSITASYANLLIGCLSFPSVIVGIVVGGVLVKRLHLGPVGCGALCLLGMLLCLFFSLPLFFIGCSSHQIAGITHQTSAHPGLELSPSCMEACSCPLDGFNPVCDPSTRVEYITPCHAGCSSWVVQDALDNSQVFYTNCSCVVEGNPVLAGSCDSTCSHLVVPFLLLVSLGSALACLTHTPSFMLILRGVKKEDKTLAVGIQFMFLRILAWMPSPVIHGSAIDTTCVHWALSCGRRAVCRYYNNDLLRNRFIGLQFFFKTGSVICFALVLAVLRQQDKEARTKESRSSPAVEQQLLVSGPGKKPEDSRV
Procedure: OATP overexpression was confirmed by Western blotting. Functionality of the OATPs was verified by [^3H]estrone-3-sulfate uptake experiments. A431 cells transfected with the empty vector were used as a negative control. All cell lines were cultured in Dulbecco's modified eagle medium supplemented with 10% fetal bovine serum, 2 mM L-glutamine, 100 units/mL penicillin and 100 µg/mL streptomycin. […] On the day of the experiment, growth medium was aspired and cells were washed with pre-warmed transport buffer (Hank's balanced salt solution supplemented with 10 mM N-2-hydroxyethylpiperazine-N-2-ethane sulfonic acid). […] Then the drug solutions were removed and cells were washed with pre-warmed transport buffer. […] For time dependency experiments, pre-warmed transport buffer was added and cells were incubated for 30 min. […] For concentration dependency experiments, pre-warmed transport buffer was added and cells were incubated for 30 min. […] In all experiments, cell count was determined on separate 24-well tissue culture plates before or after each experiment. In all experiments, radiotracer solutions were aspired following incubation and cells were washed twice with ice-cold transport buffer. […] Each inhibition experiment was performed 2 times with 3 technical replicates each and radioactivity in cells was corrected for radioactive decay, normalized to 10^6 cells and expressed as percent of vector control (% control). The time dependency experiment was performed once with 3 technical replicates and radioactivity in cells was corrected for radioactive decay and expressed as percent of applied dose per 10^6 cells (%AD/10^6 cells). The concentration dependency experiment was performed once with 3 technical replicates and radioactivity in cells was corrected for radioactive decay. Kinetic parameters were determined using a previously described method.^2 In brief, cellular radioactivity uptake was converted into units of pmol/min/10^6 cells. OATP2B1-specific uptake of erlotinib was determined by subtracting the uptake into cells transfected with the empty vector from the uptake into cells transfected with OATP2B1. The following equation was used to obtain kinetic parameters:
where v is the uptake velocity of erlotinib (pmol/min/10^6 cells), S is the erlotinib concentration in the transport buffer (µM), Km is the Michaelis constant (µM), Vmax is the maximum uptake velocity (pmol/min/10^6 cells), and Pdif is the non-saturable uptake clearance (µL/min/10^6 cells). Curve fitting was performed by the non-linear regression method with a modified Michaelis-Menten model according to equation 1 using Prism 6.0 software (GraphPad Software).

[2] = set-up: method as in PMID 23887590; settings: following ritonavir pretreatment; cited from earlier work
[3] = Tolerability of study medication in healthy volunteers; type: in vivo, human; settings: microdose (<10 μg) i.v. and 300 mg oral
Procedure: (§1) One female and five male healthy volunteers (mean age: 27 ± 6 years, mean weight: 79 ± 7 kg) were enrolled in the study. […] Radioactivity in the upper abdominal region was measured over 90 min by employing a consecutive frame sequence of 1 × 15, 3 × 5, 3 × 10, 2 × 30, 3 × 60, 2 × 150, and 16 × 300 sec. In parallel to PET imaging, serial blood samples were drawn from the radial artery for the first 2.5 min, followed by samples at 3.5, 5, 10, 20, 30, 40, 60, and 80 min after radiotracer injection. For both PET scans, subjects were asked to fast for at least 6 h before radiotracer injection. Approximately 3 h before start of the second PET scan, an oral dose of 300 mg erlotinib (Tarceva, Roche Pharma, Nutley, NJ; two 150‐mg tablets) was administered. Ten blood samples were collected at baseline and hourly for 8 h and at ∼21 h after erlotinib intake. Blood samples were centrifuged to obtain plasma, which was kept at −80°C until analysis of erlotinib concentrations.

[4] = Plasma pharmacokinetics of unlabeled erlotinib after 300 mg oral dose (HPLC-UV); type: in vivo, human
Procedure: as §1, with “In parallel to PET imaging, serial blood samples were drawn from the radial artery for the first 2.5 min, followed by samples at 3.5, 5, 10, 20, 30, 40, 60, and 80 min after radiotracer injection.” left out, “Ten blood samples were collected at baseline and hourly for 8 h and at ∼21 h after erlotinib intake.” left out
Aliquots of blood and plasma were measured for radioactivity in a gamma‐counter, which was cross‐calibrated with the PET camera. […] The concentration of unlabeled erlotinib in plasma was determined by high‐performance liquid chromatography with ultraviolet detection (Supplementary Methods). Pharmacokinetic parameters of erlotinib in plasma were determined with the Kinetica 2000 software package, v. 3.0 (InnaPhase).
The concentration of unlabeled erlotinib in plasma was determined by high-performance liquid chromatography (HPLC) using a Dionex UltiMate 3000 system (Dionex Corp., Sunnyvale, USA) with ultraviolet (UV) detection at 331 nm. After the addition of 600 µL ice-cold methanol to 200 µL of plasma, the samples were centrifuged (13,000 g for 5 min) and 80 µL of clear supernatant was injected onto a Hypersil BDS-C18 column (5 µm, 250 x 4.6 mm I.D., Thermo Fisher Scientific, Inc, Waltham, USA), preceded by a Hypersil BDS-C18 pre-column (5 µm, 10 x 4.6 mm I.D.) and kept at 40°C. The mobile phase consisted of a continuous gradient mixed from aqueous ammonium acetate buffer (10 mM, pH = 5.0) (solvent A) and acetonitrile (solvent B) at a flow rate of 1.0 mL/min.

[5] = tested on: OATP1B3; settings: read-out: IC50 for inhibition of OATP1B3; cited from earlier work
[6] = tested on: organic cation transporter 2 (OCT2/SLC22A2); set-up: method as in PMID 20304939, PMID 21088257; settings: cited from earlier work
[7] = cited from earlier work
[8] = tested on: OATP2B1; settings: read-out: IC50 for OATP2B1 inhibition; cited from earlier work
[9] = tested on: MRP4; set-up: method as in PMID 21088257; settings: cited from earlier work
[10] = biological target: T2, OATP1B3 (SLCO1B3) (Homo sapiens, UniProt Q9NPD5); settings: erlotinib 1 μM, cyclosporine A 10 μM, rifampicin 100 μM; 5 min
T2 sequence (Q9NPD5 1-702): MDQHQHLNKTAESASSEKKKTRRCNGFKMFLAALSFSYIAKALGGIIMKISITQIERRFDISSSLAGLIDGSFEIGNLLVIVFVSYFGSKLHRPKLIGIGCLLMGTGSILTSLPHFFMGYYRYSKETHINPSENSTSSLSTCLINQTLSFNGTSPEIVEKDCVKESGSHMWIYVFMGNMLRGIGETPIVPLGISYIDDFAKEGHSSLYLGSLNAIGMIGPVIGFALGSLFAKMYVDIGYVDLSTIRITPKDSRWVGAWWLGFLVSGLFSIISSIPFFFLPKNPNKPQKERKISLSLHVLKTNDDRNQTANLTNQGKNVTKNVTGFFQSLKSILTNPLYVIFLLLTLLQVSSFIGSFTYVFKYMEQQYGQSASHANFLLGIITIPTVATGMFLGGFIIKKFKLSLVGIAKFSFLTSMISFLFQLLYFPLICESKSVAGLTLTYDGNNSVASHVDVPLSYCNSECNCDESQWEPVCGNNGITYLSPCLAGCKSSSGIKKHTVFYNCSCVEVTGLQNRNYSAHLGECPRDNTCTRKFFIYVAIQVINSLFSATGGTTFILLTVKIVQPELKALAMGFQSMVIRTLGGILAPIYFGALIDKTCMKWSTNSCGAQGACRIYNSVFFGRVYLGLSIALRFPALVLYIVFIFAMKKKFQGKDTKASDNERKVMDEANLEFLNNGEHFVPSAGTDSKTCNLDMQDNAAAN
Procedure: (§2) A431 cells transfected with the empty vector were used as a negative control. All cell lines were cultured in Dulbecco's modified eagle medium supplemented with 10% fetal bovine serum, 2 mM L-glutamine, 100 units/mL penicillin and 100 µg/mL streptomycin. […] On the day of the experiment, growth medium was aspired and cells were washed with pre-warmed transport buffer (Hank's balanced salt solution supplemented with 10 mM N-2-hydroxyethylpiperazine-N-2-ethane sulfonic acid). […] Then the drug solutions were removed and cells were washed with pre-warmed transport buffer. […] For time dependency experiments, pre-warmed transport buffer was added and cells were incubated for 30 min. […] In all experiments, cell count was determined on separate 24-well tissue culture plates before or after each experiment. […] Each inhibition experiment was performed 2 times with 3 technical replicates each and radioactivity in cells was corrected for radioactive decay, normalized to 10^6 cells and expressed as percent of vector control (% control). The time dependency experiment was performed once with 3 technical replicates and radioactivity in cells was corrected for radioactive decay and expressed as percent of applied dose per 10^6 cells (%AD/10^6 cells). The concentration dependency experiment was performed once with 3 technical replicates and radioactivity in cells was corrected for radioactive decay. […]

[11] = tested on: OATP1B1; settings: cited from earlier work
[12] = tested on: organic anion transporter 3 (OAT3/SLC22A8); set-up: method as in PMID 20304939, PMID 21088257; settings: cited from earlier work
[13] = tested on: OATP1B3; settings: cited from earlier work
[14] = tested on: OATP1B1; settings: read-out: IC50 for inhibition of OATP1B1; cited from earlier work
[15] = tested on: P‐glycoprotein (Pgp/ABCB1); set-up: method as in PMID 20304939, PMID 21088257; settings: cited from earlier work
[16] = tested on: OCT1 (SLC22A1); set-up: method as in PMID 21088257; settings: cited from earlier work
[17] = biological target: T3, OATP1B1 (SLCO1B1) (Homo sapiens, UniProt Q9Y6L6); settings: erlotinib 1 μM, cyclosporine A 10 μM, rifampicin 100 μM; 5 min
T3 sequence (Q9Y6L6 1-691): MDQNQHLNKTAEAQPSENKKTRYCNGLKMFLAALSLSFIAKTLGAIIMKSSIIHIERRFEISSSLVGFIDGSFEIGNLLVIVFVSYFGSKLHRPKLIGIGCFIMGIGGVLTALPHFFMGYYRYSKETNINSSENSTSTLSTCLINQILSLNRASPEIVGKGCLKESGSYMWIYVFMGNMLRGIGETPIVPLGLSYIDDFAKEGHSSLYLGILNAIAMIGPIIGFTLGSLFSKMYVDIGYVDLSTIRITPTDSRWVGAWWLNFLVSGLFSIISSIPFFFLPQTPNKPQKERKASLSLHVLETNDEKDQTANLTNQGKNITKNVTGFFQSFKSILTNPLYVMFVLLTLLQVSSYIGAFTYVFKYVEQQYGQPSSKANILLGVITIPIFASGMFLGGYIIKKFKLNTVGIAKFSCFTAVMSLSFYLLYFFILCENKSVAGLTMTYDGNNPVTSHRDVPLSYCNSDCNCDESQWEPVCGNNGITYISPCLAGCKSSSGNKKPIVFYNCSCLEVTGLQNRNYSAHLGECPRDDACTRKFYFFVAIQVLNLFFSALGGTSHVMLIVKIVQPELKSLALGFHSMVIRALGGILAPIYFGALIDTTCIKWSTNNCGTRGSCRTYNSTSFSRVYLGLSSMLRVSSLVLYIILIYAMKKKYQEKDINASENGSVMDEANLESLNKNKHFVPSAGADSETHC
Procedure: as §2

[18] = tested on: breast cancer resistance protein (BCRP/ABCG2); set-up: method as in PMID 20304939, PMID 21088257; settings: cited from earlier work
[19] = tested on: OAT2 (SLC22A7); set-up: method as in PMID 21088257; settings: cited from earlier work
[20] = tested on: OATP2B1; set-up: method as in PMID 28005438; settings: cited from earlier work
[21] = set-up: method as in PMID 27036206; settings: combination of erlotinib with rosuvastatin, 24 patients; cited from earlier work
[22] = 3 h after oral dosing, individual subjects
[23] = 4 h after oral dosing, individual subjects
[24] = individual subjects, oral 300 mg

SMILES: C#Cc1cccc(Nc2ncnc3cc(OCCOC)c(OCCO[11CH3])cc23)c1 [[^11C]erlotinib]
Michaelis constant (K m) of the saturable component of OATP2B1‐specific uptake [1]: 0.324 ± 0.182 µM
incubation time at maximum difference in uptake between OATP2B1 cells and the other cells ([1]; <0.1 μM, time dependency experiment): 10 to 15 min

SMILES: Cc1cc(C)c(NC(=O)CN(CC(=O)[O-])CC(=O)[O-])c(C)c1Br.Cc1cc(C)c(NC(=O)CN(CC(=O)[O-])CC(=O)[O-])c(C)c1Br.[99Tc+4] [[^99mTc]mebrofenin]
increase in the efflux clearance from liver to blood [2]: 517%
reduction in CL uptake [2]: 46%

SMILES: C#Cc1cccc(Nc2ncnc3cc(OCCOC)c(OCCOC)cc23)c1 [erlotinib]
tolerability, adverse events [3]: well tolerated by all subjects with no occurrence of adverse events
CPET, plasma concentration at time of the PET scan [4, 22]: 3.30 µM and 4.12 µM and 4.73 µM and 4.91 µM and 2.66 µM and 4.61 µM
CPET,unbound [4, 22]: 0.12 µM and 0.20 µM and 0.10, 0.10 µM and 0.28 µM
CPET, plasma concentration at time of the PET scan [4, 23]: 3.33 µM and 4.50 µM and 4.74 µM and 5.63 µM and 2.71 µM and 4.92 µM
CPET,unbound [4, 23]: 0.13 µM and 0.23 µM and 0.10, 0.10 µM and 0.30 µM
Cmax ([4]; both sexes, human, plasma, po, 300 mg, oral 300 mg, mean ± SD, read-out: Maximum plasma concentration (C max), mean): 4.6 ± 1.3 µM
AUC0-∞ [4, 24]: 68.1 µM·h and 94.0 µM·h and 72.0 µM·h and 102.8 µM·h and 36.6 µM·h and 187.8 µM·h
T1/2, terminal elimination half-life [4, 24]: 14.1 h and 12.5 h and 9.2 h and 11.3 h and 5.4 h and 28.7 h
Tmax [4, 24]: 2 h and 6 h and 4 h
Cmax ([4]; individual subjects, oral 300 mg, read-out: Cmax): 3.51 µM and 5.03 µM and 4.74 µM and 6.43 µM and 2.83 µM and 4.92 µM
plasma concentration at the time of the PET scan ([4]; mean of values at 3 h and 4 h after oral intake of 300 mg): 4.2 ± 1.0 µM
unbound plasma concentration at the time of the PET scan ([4]; mean, oral 300 mg): 0.18 µM
time of C max, median ([4]; oral 300 mg): 5 h
time of C max, range ([4]; oral 300 mg): 2 to 6 h
IC50 [5]: 1.19 µM
substrate of OCT2 [6]: substrate
logP [7]: 4.19
IC50 [8]: 0.03 µM
transport by MRP4 [9]: not to be transported
Michaelis constant (K m) of the saturable component of OATP2B1‐specific uptake [1]: 0.32 µM
effect on [^11C]erlotinib uptake in OATP2B1 overexpressing cells [1]: significantly decreased
effect on [^11C]erlotinib uptake in OATP1B3 overexpressing cells [10]: no effect
transport by OATP1B1 [11]: not to be transported
substrate of OAT3 [12]: substrate
transport by OATP1B3 [13]: not to be transported
IC50 [14]: 104 µM
substrate of Pgp [15]: substrate
substrate of OCT1 [16]: not a substrate
effect on [^11C]erlotinib uptake in OATP1B1 overexpressing cells [17]: no effect
substrate of BCRP [18]: substrate
substrate of OAT2 [19]: not a substrate

SMILES: COc1cc2ncnc(Nc3ccc(F)c(Cl)c3)c2cc1OCCCN1CCOCC1 [gefitinib]
transport by OATP2B1 [20]: transported

effect on [^11C]erlotinib uptake in OATP2B1 overexpressing cells [1]: significantly decreased
SMILES: CO[C@H]1/C=C/O[C@@]2(C)Oc3c(C)c(O)c4c(O)c(c(/C=N/N5CCN(C)CC5)c(O)c4c3C2=O)NC(=O)/C(C)=C\C=C\[C@H](C)[C@H](O)[C@@H](C)[C@@H](O)[C@@H](C)[C@H](OC(C)=O)[C@@H]1C [rifampicin]

SMILES: CC(C)c1nc(N(C)S(C)(=O)=O)nc(-c2ccc(F)cc2)c1/C=C/[C@@H](O)C[C@@H](O)CC(=O)O [rosuvastatin]
rate of muscle toxicity [21]: 34%

From PMC6083370, “Influence of OATPs on Hepatic Disposition of Erlotinib Measured With Positron Emission Tomography” (Clinical Pharmacology and Therapeutics, 2017)
